# Results from US20050090524A1, “Novel adamantane derivatives” (priority 2002, published 2005).
# Counter-ions that a name gives are not always drawn.
# System: not given
# Assay: not given
# Conditions: not given
row,melting point,SMILES
1,195 to 200 °C,"CNCCCN(C)c1ccc2c(C(=O)NCC34CC5CC(CC(C5)C3)C4)c(Cl)ccc2n1 (as salt: TFA) [Example 208, N-(1-Adamantylmethyl)-6-chloro-2-{methyl[3-(methylamino)propyl]amino}quinoline-5-carboxamide]"
2,184 to 185 °C,"CNCCCc1ccc2c(C(=O)NCC34CC5CC(CC(C5)C3)C4)c(Cl)ccc2n1 (as salt: hydrochloride) [Example 167, N-(1-Adamantylmethyl)-6-chloro-2-[3-(methylamino)propyl]quinoline-5-carboxamide Sesquihydrochloride]"
3,90 to 91 °C,O=C(CC12CC3CC(CC(C3)C1)C2)Nc1c(Cl)ccc2nc(CN[C@@H]3CCNC3)ccc12 (as salt: trifluoroacetate)
4,147 to 148 °C (dec.),"O=C(NCC12CC3CC(CC(C3)C1)C2)c1cc(CCCNCCCO)nc2ccccc12 (as salt: salt) [Example 168, N-(1-Adamantylmethyl)-2-{3-[(3-hydroxypropyl)amino]propyl}quinoline-4-carboxamide Benzoic Acid Salt]"
5,291 °C,Cc1ccc2nc(N3CC[C@H](N)C3)ccc2c1NC(=O)CC12CC3CC(CC(C3)C1)C2 (as salt: hydrochloride)
6,168 to 174 °C,"Cc1ccc2nc(NCCCO)ccc2c1NC(=O)CC12CC3CC(CC(C3)C1)C2 [Example 12, 2(1-Adamantyl)-N-{2-[(3-hydroxypropyl)amino]-6-methylquinolin-5-yl}acetamide]"
7,150 to 155 °C,"CCNCCCc1ccc2c(C(=O)NCC34CC5CC(CC(C5)C3)C4)cccc2n1 (as salt: hydrochloride) [Example 173, N-(1-Adamantylmethyl)-2-[3-(ethylamino)propyl]quinoline-5-carboxamide Dihydrochloride]"
8,243 to 246 °C (dec.),CNCCCc1cccc2c(C(=O)NCC34CC5CC(CC(C5)C3)C4)ccnc12 (as salt: hydrochloride)
9,125 to 127 °C (dec.),O=C(NCC12CC3CC(CC(C3)C1)C2)c1cccc2ncccc12 (as salt: trifluoroacetate)
10,103 to 107 °C,"Cc1ccc2nc(NCCO)ccc2c1NC(=O)CC12CC3CC(CC(C3)C1)C2 (as salt: trifluoroacetic acid salt) [Example 13, 2-(1-Adamantyl)-N-{2[(2-hydroxyethyl)amino]-6-methylquinolin-5-yl}acetamide]"
11,227 to 230 °C,Cc1ccc2nc(NCCNCCO)ccc2c1NC(=O)CC12CC3CC(CC(C3)C1)C2 (as salt: hydrochloride)
12,280 to 283 °C,"O=C(CC12CC3CC(CC(C3)C1)C2)Nc1c(Cl)ccc2nc(N3CCNCC3)ccc12 (as salt: hydrochloride) [Example 207, 2-(1-Adamantyl)-N-(6-chloro-2-piperazin-1-ylquinolin-5-yl)acetamide]"
13,264 to 266 °C,O=C(CC12CC3CC(CC(C3)C1)C2)Nc1c(Cl)ccc2nc(NCCCNCCO)ccc12 (as salt: hydrochloride)
14,147 to 150 °C,O=C(CC12CC3CC(CC(C3)C1)C2)Nc1c(Cl)ccc2nc(CC[C@@H](O)CO)ccc12 (as salt: hydrochloride)
15,276 °C,"Cc1ccc2nc(N3CCNCC3)ccc2c1NC(=O)CC12CC3CC(CC(C3)C1)C2 (as salt: hydrochloride) [Example 178, 2-(1-Adamantyl)-N-(6methyl-2-piperazin-1-ylquinolin-5-yl)acetamide Dihydrochloride]"
16,232 to 234 °C,CNCCNc1ccc2c(NC(=O)CC34CC5CC(CC(C5)C3)C4)c(Cl)ccc2n1 (as salt: hydrochloride)
17,132 to 136 °C,O=C(CC12CC3CC(CC(C3)C1)C2)Nc1c(Cl)ccc2nc(CN3CCNCC3)ccc12 (as salt: trifluoroacetate)
18,224 °C,Cc1ccc2nc(N3CCN(CCO)CC3)ccc2c1NC(=O)CC12CC3CC(CC(C3)C1)C2 (as salt: hydrochloride)
19,270 °C,Cc1ccc2nc(N3CC[C@H](NC(=O)N4CC[C@H](N)C4)C3)ccc2c1NC(=O)CC12CC3CC(CC(C3)C1)C2 (as salt: hydrochloride)
20,219 to 223 °C,O=C(CC12CC3CC(CC(C3)C1)C2)Nc1c(Cl)ccc2nc(NCCNCCO)ccc12 (as salt: hydrochloride)
21,130 to 135 °C,"O=C(CC12CC3CC(CC(C3)C1)C2)Nc1cccc2nc(CCCNCCCO)ccc12 (as salt: hydrochloride) [Example 177, 2-(1-Adamantyl)-N-(2-{3-[(3-hydroxypropyl)amino]propyl}quinolin-5-yl)acetamide Dihydrochloride]"
22,217 to 224 °C,"CNCCCNc1ccc2c(NC(=O)CC34CC5CC(CC(C5)C3)C4)c(C)ccc2n1 [Example 204, 2-(1-Adamantyl)-N-(6-methyl-2-{[3-(methylamino)propyl]amino}quinolin-5-yl)acetamide]"
23,295 °C,Cc1ccc2nc(N3CCC(N)CC3)ccc2c1NC(=O)CC12CC3CC(CC(C3)C1)C2 (as salt: hydrochloride)
24,219 to 220 °C,"O=C(CC12CC3CC(CC(C3)C1)C2)Nc1c(Cl)ccc2ncccc12 [Example 5, 2-(1-Adamantyl)-N-(6-chloroquinolin-5-yl)acetamide]"
25,208 °C (dec.),"O=C(NCC12CC3CC(CC(C3)C1)C2)c1c(Cl)ccc2nc(CN3CCNCC3)ccc12 (as salt: hydrochloride) [Example 170, N-(1-Adamantylmethyl)-6-chloro-2-(piperazin-1-ylmethyl)quinoline-5-carboxamide Hydrochloride]"
26,158 to 160 °C,CNCCCc1ccc2c(C(=O)NCC34CC5CC(CC(C5)C3)C4)cccc2n1 (as salt: hydrochloride)
27,150 to 152 °C,O=C(NCC12CC3CC(CC(C3)C1)C2)c1cccc2nc(CCCNCCCO)ccc12 (as salt: hydrochloride)
28,193 to 195 °C,"Cc1ccc2nc(N(C)CCN(C)C)ccc2c1NC(=O)CC12CC3CC(CC(C3)C1)C2 (as salt: trifluoroacetic acid salt) [Example 14, 2-(1-Adamantyl)-N-{2-[[2-(dimethylamino)ethyl](methyl)amino]-6-methylquinolin-5-yl}acetamide]"
29,306 °C,"Cc1ccc2nc(N3CCC(NCCO)CC3)ccc2c1NC(=O)CC12CC3CC(CC(C3)C1)C2 (as salt: hydrochloride) [Example 181, 2-(1-Adamantyl)-N-(2-{4-[(2-hydroxyethyl)amino]piperidin-1-yl}-6-methylquinolin-5-yl)acetamide Dihydrochloride]"

# Target: T1, P2X7 receptor (Homo sapiens, UniProt Q99572)
# T1 construct: 200 μl of a suspension of THP-1 cells; endogenous in cells; host or cells: THP-1 cells
# T1 sequence (Q99572 1-595): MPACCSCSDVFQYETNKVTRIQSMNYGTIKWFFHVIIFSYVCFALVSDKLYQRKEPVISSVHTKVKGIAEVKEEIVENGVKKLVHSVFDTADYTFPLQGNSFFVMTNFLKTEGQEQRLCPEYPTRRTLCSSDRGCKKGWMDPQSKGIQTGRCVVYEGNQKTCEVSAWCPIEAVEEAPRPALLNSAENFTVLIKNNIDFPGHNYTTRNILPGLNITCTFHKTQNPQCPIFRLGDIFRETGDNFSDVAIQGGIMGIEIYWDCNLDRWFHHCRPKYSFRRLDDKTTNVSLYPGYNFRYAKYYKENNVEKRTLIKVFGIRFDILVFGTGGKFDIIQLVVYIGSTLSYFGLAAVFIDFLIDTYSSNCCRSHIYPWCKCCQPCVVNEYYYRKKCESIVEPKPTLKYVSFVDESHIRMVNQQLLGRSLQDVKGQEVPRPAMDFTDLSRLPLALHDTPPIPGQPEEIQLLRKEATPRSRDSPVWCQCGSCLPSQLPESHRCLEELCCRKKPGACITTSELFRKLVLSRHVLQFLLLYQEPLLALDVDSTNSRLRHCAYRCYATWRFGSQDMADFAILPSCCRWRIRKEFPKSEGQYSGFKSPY
# Assay: P2X7 receptor antagonist test: bbATP-induced ethidium bromide fluorescence in THP-1 cells
# Type: cell-based
# Conditions: bbATP agonist, 37° C. for one hour, negative logarithm of concentration reducing bbATP agonist activity by 50%
# From the text: Certain compounds such as benzoylbenzoyl adenosine triphosphate (bbATP) are known to be agonists of the P2X7 receptor, effecting the formation of pores in the plasma membrane (Drug Development Research (1996), 37(3), p.126). Consequently, when the receptor is activated using bbATP in the presence of ethidium bromide (a fluorescent DNA probe), an increase in the fluorescence of intracellular DNA-bound ethidium bromide is observed. The increase in fluorescence can be used as a measure of P2X7 receptor activation and therefore to quantify the effect of a compound on the P2X7 receptor.
# In this manner, each of the title compounds of the Examples was tested for antagonist activity at the P2X7 receptor. Thus, the test was performed in 96-well flat bottomed microtitre plates, the wells being filled with 250 μl of test solution comprising 200 μl of a suspension of THP-1 cells (2.5×10^6 cells/ml) containing 10^−4M ethidium bromide, 25 μl of a high potassium buffer solution containing 10^−5M bbATP, and 25 μl of the high potassium buffer solution containing 3×10^−5M test compound. The plate was covered with aplastics sheet and incubated at 37° C. for one hour. The plate was then read in a Perkin-Elmer fluorescent plate reader, excitation 520 nm, emission 595 nm, slit widths: Ex 15 nm, Em 20 nm. For the purposes of comparison, bbATP (a P2X7 receptor agonist) and pyridoxal 5-phosphate (a P2X7 receptor antagonist) were used separately in the test as controls. From the readings obtained, a pIC50 figure was calculated for each test compound, this figure being the negative logarithm of the concentration of test compound necessary to reduce the bbATP agonist activity by 50%.
row,IC50 [µM],SMILES
1,0.0263,"O=C(NCC12CC3CC(CC(C3)C1)C2)c1c(Cl)ccc2nc(CN3CCNCC3)ccc12 [Example 170, N-(1-Adamantylmethyl)-6-chloro-2-(piperazin-1-ylmethyl)quinoline-5-carboxamide Hydrochloride]"
2,0.00891,"O=C(CC12CC3CC(CC(C3)C1)C2)Nc1cccc2nc(NCCCO)ccc12 [Example 6, 2-(1-Adamantyl)-N-{2-[(3-hydroxypropyl)amino]quinolin-5-yl}acetamide]"
3,0.0794,"O=C(CC12CC3CC(CC(C3)C1)C2)Nc1cccc2cnccc12 [Example 160, 2-(1-Adamantyl)-N-isoquinolin-5-ylacetamide]"
4,0.0251,"O=C(NCC12CC3CC(CC(C3)C1)C2)c1cc(CCCNCCCO)nc2ccccc12 [Example 168, N-(1-Adamantylmethyl)-2-{3-[(3-hydroxypropyl)amino]propyl}quinoline-4-carboxamide Benzoic Acid Salt]"
5,0.0186,"O=C(CC12CC3CC(CC(C3)C1)C2)Nc1c(Cl)ccc2nc(CN3CCN(CCO)CC3)ccc12 [Example 196, 2-(1-Adamantyl)-N-(6chloro-2-{[4-(2-hydroxyethyl)piperazin-1-yl]methyl}quinlolin-5-yl)acetamide]"
6,0.00501,"CNCCCc1ccc2c(C(=O)NCC34CC5CC(CC(C5)C3)C4)c(Cl)ccc2n1 [Example 167, N-(1-Adamantylmethyl)-6-chloro-2-[3-(methylamino)propyl]quinoline-5-carboxamide Sesquihydrochloride]"
